Measured values: US8809367B2, “1-1-Oxo-1,2,3,4-tetrahydroisoquinolin-7-yl)urea derivatives as N-formyl peptide receptor like-1 (FPRL-1) receptor modulators” (Allergan, Inc., priority 2011, dated 2014)

Molecular target: T1, FPRL-1 (Homo sapiens, UniProt P25090)
T1 construct: expressed in transfected cells
T1 sequence (P25090 1-351): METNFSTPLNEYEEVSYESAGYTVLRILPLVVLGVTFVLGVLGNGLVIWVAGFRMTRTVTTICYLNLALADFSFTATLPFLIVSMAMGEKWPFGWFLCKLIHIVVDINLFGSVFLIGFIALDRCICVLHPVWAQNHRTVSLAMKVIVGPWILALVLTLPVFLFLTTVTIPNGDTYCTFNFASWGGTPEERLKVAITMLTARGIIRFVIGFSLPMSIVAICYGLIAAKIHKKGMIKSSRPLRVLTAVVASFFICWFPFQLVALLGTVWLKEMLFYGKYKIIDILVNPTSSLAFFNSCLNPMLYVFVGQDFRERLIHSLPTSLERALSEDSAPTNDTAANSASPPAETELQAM
Assay: compound-induced calcium activity on FLIPR Tetra in CHO-Ga16 cells stably expressing FPRL1
Format: cell-based
Conditions: for FPRL-1 Ga16-CHO (eff): efficacy value in brackets under EC50; for EC50: tested at 0.61 to 10,000 nM
Protocol: CHO-Ga16 cells stably expressing FPRL1 were cultured in (F12, 10% FBS, 1% PSA, 400 μg/ml geneticin and 50 μg/ml hygromycin) and HEK-Gqi5 cells stable expressing FPR1 were cultured in (DMEM high glucose, 10% FBS, 1% PSA, 400 μg/ml geneticin and 50 μg/ml hygromycin). In general, the day before the experiment, 18,000 cells/well were plated in a 384-well clear bottom poly-d-lysine coated plate. The following day the screening compound-induced calcium activity was assayed on the FLIPR^Tetra. The drug plates were prepared in 384-well microplates using the EP3 and the MultiPROBE robotic liquid handling systems. Compounds were tested at concentrations ranging from 0.61 to 10,000 nM. Results are expressed as EC50 (nM) and efficacy values.

FPRL-1 Ga16-CHO (eff) | EC50 | SMILES
(0.93) | 11.8 nM | C[S+]([O-])c1ccc(NC(=O)Nc2ccc3c(c2)C(=O)N(CCc2c[nH]cn2)C(c2ccc(F)cn2)C3)cc1 (stereo not drawn) [Compound 31, 1-{3-(5-fluoropyridin-2-yl)-2-[2-(1H-imidazol-4-yl)ethyl]-1-oxo-1,2,3,4-tetrahydroisoquinolin-7-yl}-3-[4-(methylsulfinyl)phenyl]urea]
(1.0) | 10.5 nM | CS(=O)(=O)c1ccc(NC(=O)Nc2ccc3c(c2)C(=O)N(CCc2c[nH]cn2)C(c2ccc(F)cn2)C3)cc1 (stereo not drawn) [Compound 32, 1-{3-(5-fluoropyridin-2-yl)-2-[2-(1H-imidazol-4-yl)ethyl]-1-oxo-1,2,3,4-tetrahydroisoquinolin-7-yl}-3-[4-(methylsulfonyl)phenyl]urea]
(0.99) | 9.5 nM | CS(=O)(=O)c1ccc(NC(=O)Nc2ccc3c(c2)C(=O)N(CCc2c[nH]cn2)C(c2ccc(Cl)cn2)C3)cc1 (stereo not drawn) [Compound 34, 1-{3-(5-chloropyridin-2-yl)-2-[2-(1H-imidazol-4-yl)ethyl]-1-oxo-1,2,3,4-tetrahydroisoquinolin-7-yl}-3-[4-(methylsulfonyl)phenyl]urea]
